Experiment: Initial research on stability of the active compound on long-term storage
Assay type: physicochemical
Settings: active compound alone, not formulated

SMILES: CCCCCCN(CCCCCC)c1ccc(-n2c(C)nc(C)cc2=O)cc1F [compound having formula (I), 3-(4-(dihexylamino)-3-fluorophenyl)-2,6-dimethylpyrimidin-4(3H)-one]
- stability on long-term storage: good stability

Source: patent publication US20250228784A1, “ANTIFIBROTIC COMPOSITION” (Sunshine Lake Pharma Co., Ltd., priority 2021, published 2025)
